Values after ≈ are worked out from the molar mass of the structure shown. Like-named read-outs stand apart in the source and are kept apart here.
How the values were obtained:
[1] = in vivo; cited from earlier work
physchem = format: physicochemical
Description: Equilibrium solubility data for S(+)-etodolac based on pH was determined by placing excess amounts of the S(+)-etodolac and about 5 mL of the dissolution medium in screw-capped vials which were covered with aluminum foil and then tumbled in a 25° C. water bath for 3 days. Slurries were filtered through […] Gelman disposable filters. Filtrates were appropriately diluted with their dissolution medium and analyzed by a Cary 210 UV-VIS spectrophotometer at 278 nm.
The dissolution media used for the pH-solubility profile and ionic strength effect were HCl, HAc--NaAc, KH2 PO4 --NaOH, K2 CO3 --KHCO3, H3 BO3 --NaOH, and NaOH solutions, where the ionic strengths of media were adjusted to be 0.1 by the addition of NaCl. Those solvent systems used for cosolvent solubilization were various ratios of PEG 400, ethanol, triethanolamine (TEA), and dimethylacetamide (DMA) to aqueous solutions. pH values of the slurries were measured before and after equilibrium.

[2] = Solubility in words (Physicians' Desk Reference and description); format: physicochemical; settings: acid form
[3] = J. Med. Chem. 1983, 26, 1778-1780; cited from earlier work
acute pain = settings: cited from earlier work
[4] = Physicians' Desk Reference, 1995; cited from earlier work
animal models = settings: in vivo; cited from earlier work
[5] = 20% ethanol, organic solvent or mixture
[6] = 20% peg 400, organic solvent or mixture
[7] = 40% ethanol, organic solvent or mixture
[8] = 40% peg 400, organic solvent or mixture
[9] = 60% ethanol, organic solvent or mixture
[10] = 60% peg 400, organic solvent or mixture
[11] = 80% ethanol, organic solvent or mixture
[12] = 80% peg 400, organic solvent or mixture
[13] = 100% ethanol, organic solvent or mixture
[14] = 100% triethanolamine, organic solvent or mixture

For `CCc1cccc2c3c([nH]c12)[C@@](CC)(CC(=O)O)OCC3` [R(-) etodolac], the “certain purported adverse effects associated with the racemic mixture” value [1] is given as “substantially reduces”.
For `CCc1cccc2c3c([nH]c12)[C@](CC)(CC(=O)O)OCC3` [S(+)-etodolac, S(+) 1,8-diethyl-1,3,4,9-tetrahydropyrano[3,4-b]indole-1-acetic acid], the solubility at 72 h (physchem; 0.001 n hcl, pH 3.24) was 0.073 mg/mL (≈ 0.254 mM), the solubility at 72 h (physchem; 0.001 n naoh, pH 8.5) was 32.3 mg/mL (≈ 112 mM) and the solubility at 72 h (physchem; 0.01 m phosphate buffer, pH 6.4, aqueous buffer) was 4.56 mg/mL (≈ 15.9 mM). The solubility at 72 h (physchem; 0.01 m phosphate buffer, pH 6.63, aqueous buffer) was 7.81 mg/mL (≈ 27.2 mM), the solubility at 72 h (physchem; 0.04 m borate buffer, pH 8.61, aqueous buffer) was 11.6 mg/mL (≈ 40.4 mM) and the solubility at 72 h (physchem; 0.04 m phosphate buffer, pH 8.59, aqueous buffer) was 15.3 mg/mL (≈ 53.1 mM). The solubility at 72 h (physchem; 0.1 m acetate buffer, pH 4.03, aqueous buffer) was 0.093 mg/mL (≈ 0.324 mM), the solubility at 72 h (physchem; 0.1 m acetate buffer, pH 4.41, aqueous buffer) was 0.12 mg/mL (≈ 0.418 mM) and the solubility at 72 h (physchem; 0.1 m phosphate buffer, pH 4.63, aqueous buffer) was 0.193 mg/mL (≈ 0.672 mM). The solubility at 72 h (physchem; 0.1 m phosphate buffer, pH 4.98, aqueous buffer) was 0.263 mg/mL (≈ 0.915 mM), the solubility at 72 h (physchem; 0.1 m phosphate buffer, pH 5.82, aqueous buffer) was 1.21 mg/mL (≈ 4.22 mM) and the solubility at 72 h (physchem; 0.1 n hcl, pH 1.14) was 0.08 mg/mL (≈ 0.278 mM). It also gave a solubility at 72 h (physchem; 0.1 n hcl, pH 2.13) of 0.08 mg/mL (≈ 0.278 mM), a solubility at 72 h (physchem; 0.1 n naoh, pH 7.15) of 29.4 mg/mL (≈ 102 mM) and a solubility at 72 h (physchem; 0.2 n naoh, pH 7.3) of 58.8 mg/mL (≈ 205 mM). For the same compound, the solubility at 72 h (physchem; 2% triethanolamine) was 39.4 mg/mL (≈ 137 mM), the solubility at 72 h (physchem; 4% triethanolamine) was 77.8 mg/mL (≈ 271 mM) and the solubility at 72 h (physchem; 6% triethanolamine) was 126 mg/mL (≈ 439 mM). The solubility at 72 h (physchem; 8% triethanolamine) was 235 mg/mL (≈ 816 mM), the solubility at 72 h (physchem; 10% dimethylacetamide) was 0.468 mg/mL (≈ 1.63 mM) and the solubility at 72 h (physchem; 10% triethanolamine) was 295 mg/mL (≈ 1030 mM). For the same compound, the solubility at 72 h (physchem; 20% dimethylacetamide) was 1.25 mg/mL (≈ 4.34 mM), the solubility at 72 h (physchem; [5]) was 0.412 mg/mL (≈ 1.43 mM) and the solubility at 72 h (physchem; [6]) was 0.663 mg/mL (≈ 2.31 mM). For the same compound, the solubility at 72 h (physchem; 30% dimethylacetamide) was 3.56 mg/mL (≈ 12.4 mM), the solubility at 72 h (physchem; 40% dimethylacetamide) was 9.96 mg/mL (≈ 34.6 mM) and the solubility at 72 h (physchem; [7]) was 3.53 mg/mL (≈ 12.3 mM). For the same compound, the solubility at 72 h (physchem; [8]) was 3.06 mg/mL (≈ 10.6 mM), the solubility at 72 h (physchem; 50% dimethylacetamide) was 89.1 mg/mL (≈ 310 mM) and the solubility at 72 h (physchem; 60% dimethylacetamide) was 256 mg/mL (≈ 892 mM). The solubility at 72 h (physchem; [9]) was 43.7 mg/mL (≈ 152 mM), the solubility at 72 h (physchem; [10]) was 16.3 mg/mL (≈ 56.6 mM) and the solubility at 72 h (physchem; 80% dimethylacetamide) was 419 mg/mL (≈ 1460 mM). The solubility at 72 h (physchem; [11]) was 126 mg/mL (≈ 439 mM), the solubility at 72 h (physchem; [12]) was 643 mg/mL (≈ 2240 mM) and the solubility at 72 h (physchem; 100% dimethylacetamide, organic solvent or mixture) was 758 mg/mL (≈ 2640 mM). For the same compound, the solubility at 72 h (physchem; [13]) was 284 mg/mL (≈ 987 mM), the Solubility (physchem; 100% peg 400, 72 h) was 3460. mg/mL and the solubility at 72 h (physchem; [14]) was 81.7 mg/mL (≈ 284 mM). For the same compound, the “solubility in alcohols, dimethyl sulfoxide, propylene glycol and aqueous polyethylene glycols” value [2] was “soluble” and the “share of the effects of etodolac due to the enantiomer” value [3] was “virtually all of the effects of etodolac are due to the S(+) enantiomer”.
In the case of `CCc1cccc2c3c([nH]c12)C(CC)(CC(=O)O)OCC3` (racemic) [etodolac, (±) 1,8-diethyl-1,3,4,9-tetrahydropyrano[3,4-b]indole-1-acetic acid], the solubility at 72 h (physchem; 2% triethanolamine) is reported as 37.7 mg/mL (≈ 131 mM), the solubility at 72 h (physchem; 4% triethanolamine) is reported as 75.9 mg/mL (≈ 264 mM) and the solubility at 72 h (physchem; 6% triethanolamine) is reported as 122 mg/mL (≈ 423 mM). It also gave a solubility at 72 h (physchem; 8% triethanolamine) of 226 mg/mL (≈ 785 mM), a solubility at 72 h (physchem; 10% dimethylacetamide) of 0.468 mg/mL (≈ 1.63 mM) and a solubility at 72 h (physchem; 10% triethanolamine) of 294 mg/mL (≈ 1020 mM). For the same compound, the solubility at 72 h (physchem; 20% dimethylacetamide) was 0.956 mg/mL (≈ 3.33 mM), the solubility at 72 h (physchem; [5]) was 0.279 mg/mL (≈ 0.971 mM) and the solubility at 72 h (physchem; [6]) was 0.905 mg/mL (≈ 3.15 mM). It also gave a solubility at 72 h (physchem; 30% dimethylacetamide) of 2.99 mg/mL (≈ 10.4 mM), a solubility at 72 h (physchem; 40% dimethylacetamide) of 7.28 mg/mL (≈ 25.3 mM) and a solubility at 72 h (physchem; [7]) of 2.33 mg/mL (≈ 8.13 mM). The solubility at 72 h (physchem; [8]) was 3.58 mg/mL (≈ 12.5 mM), the solubility at 72 h (physchem; 50% dimethylacetamide) was 34.9 mg/mL (≈ 122 mM) and the solubility at 72 h (physchem; 60% dimethylacetamide) was 52.1 mg/mL (≈ 181 mM). It also gave a solubility at 72 h (physchem; [9]) of 23.8 mg/mL (≈ 82.7 mM), a solubility at 72 h (physchem; [10]) of 20.2 mg/mL (≈ 70.3 mM) and a solubility at 72 h (physchem; 80% dimethylacetamide) of 2630 mg/mL (≈ 9160 mM). The solubility at 72 h (physchem; [11]) was 102 mg/mL (≈ 354 mM), the solubility at 72 h (physchem; [12]) was 152 mg/mL (≈ 531 mM) and the Solubility (physchem; 100% dimethylacetamide, 72 h) was 4734. mg/mL. For the same compound, the solubility at 72 h (physchem; [13]) was 234 mg/mL (≈ 815 mM), the solubility at 72 h (physchem; 100% peg 400, organic solvent or mixture) was 1730 mg/mL (≈ 6030 mM) and the solubility at 72 h (physchem; [14]) was 102 mg/mL (≈ 355 mM). The “symptom relief for acute pain lasting” value (acute pain; single dose of 200 mg) was 4 to 5 h, the “symptom relief for acute pain lasting” value (acute pain; single dose of 400 mg) was 5 to 6 h and the “solubility in alcohols, chloroform, dimethyl sulfoxide and aqueous polyethylene glycol” value [4] was “soluble”. For the same compound, the solubility in water [4] was “insoluble” and the “activities in animal models” value (animal models) was “exhibits anti-inflammatory, analgesic, and antipyretic activities”.
